Test results reported in paper PMC2597681 (Biochemistry, 2008).
Like-named read-outs stand apart in the source and are kept apart here.

Experiments:
[1] = biological target: T1, ND1 subunit (Bos taurus, UniProt P03887+P17694); settings: ref [19]; cited from earlier work
[2] = tested on: 49 kDa subunit and an unidentified subunit of complex I; assay: Suppression of specific binding of [125I]AFP to SMP; design: species or system bovine; settings: [125I]AFP 6 nM; competitor 60, 600 or 6,000 nM; SMP 1.0 mg of protein/mL
[3] = biological target: T2, bovine heart mitochondrial complex I (NADH-ubiquinone oxidoreductase) (Bos taurus, UniProt P03887+P17694); settings: ref [27]; cited from earlier work
[4] = biological target: bovine heart mitochondrial complex I (ubiquinol-NAD+ oxidoreductase activity) (Bos taurus, UniProt P03887+P17694); settings: ref [27]; cited from earlier work
[5] = biological target: T1, ND1 subunit; assay: Suppression of specific photoaffinity labeling of the ND1 subunit by [125I]TDA; assay type: binding, bovine; settings: [125I]TDA 3 nM; SMP 0.3 mg of protein/mL
[6] = biological target: T2, bovine heart mitochondrial complex I (NADH-ubiquinone oxidoreductase); assay: NADH oxidase activity in SMP; assay type: biochemical

T1 sequence (P03887 whole entry): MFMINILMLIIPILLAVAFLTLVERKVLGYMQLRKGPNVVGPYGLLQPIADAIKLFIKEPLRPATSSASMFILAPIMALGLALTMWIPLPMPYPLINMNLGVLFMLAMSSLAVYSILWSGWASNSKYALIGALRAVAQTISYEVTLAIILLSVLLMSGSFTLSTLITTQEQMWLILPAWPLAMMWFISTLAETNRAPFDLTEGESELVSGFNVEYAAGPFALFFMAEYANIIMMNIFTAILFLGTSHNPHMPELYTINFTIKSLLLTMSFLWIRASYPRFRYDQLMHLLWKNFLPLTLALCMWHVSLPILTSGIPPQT
T1 sequence (P17694 34-463): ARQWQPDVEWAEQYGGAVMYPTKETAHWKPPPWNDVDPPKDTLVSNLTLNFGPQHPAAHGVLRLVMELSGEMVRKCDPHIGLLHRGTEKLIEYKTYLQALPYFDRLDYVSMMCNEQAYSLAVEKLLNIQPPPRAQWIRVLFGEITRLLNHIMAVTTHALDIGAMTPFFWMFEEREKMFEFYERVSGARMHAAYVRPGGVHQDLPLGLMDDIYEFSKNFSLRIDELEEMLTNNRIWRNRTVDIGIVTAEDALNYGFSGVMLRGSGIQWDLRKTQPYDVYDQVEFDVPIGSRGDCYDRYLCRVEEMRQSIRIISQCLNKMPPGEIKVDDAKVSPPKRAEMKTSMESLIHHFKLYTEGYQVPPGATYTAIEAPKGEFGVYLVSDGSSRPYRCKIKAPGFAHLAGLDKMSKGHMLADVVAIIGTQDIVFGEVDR
T1 sequence (P42026 38-216 partner): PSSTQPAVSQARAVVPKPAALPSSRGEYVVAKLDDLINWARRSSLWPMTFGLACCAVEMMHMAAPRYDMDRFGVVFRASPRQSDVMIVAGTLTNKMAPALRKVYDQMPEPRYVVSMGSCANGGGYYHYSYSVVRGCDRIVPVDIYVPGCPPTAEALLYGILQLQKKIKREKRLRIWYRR
T2 sequence (P17694 34-463): as the sequence (P17694 34-463) above
T2 sequence (P03887 whole entry): as the sequence (P03887 whole entry) above
T2 sequence (P42026 38-216 partner): as the sequence (P42026 38-216 partner) above
Sequence of bovine heart mitochondrial complex I (ubiquinol-NAD+ oxidoreductase activity) (P17694 34-463): as the sequence (P17694 34-463) above
Sequence of bovine heart mitochondrial complex I (ubiquinol-NAD+ oxidoreductase activity) (P03887 whole entry): as the sequence (P03887 whole entry) above
Sequence of bovine heart mitochondrial complex I (ubiquinol-NAD+ oxidoreductase activity) (P42026 38-216 partner): as the sequence (P42026 38-216 partner) above

| Compound | Suppression of specific binding of [125I]TDA to ND1 (in words) [1] | Suppression of specific labeling of the two subunits by [125I]AFP (in words) [2] | IC50 values, Forward electron transfer [3] | IC50 (R)/IC50 (F), ratio of IC50 (reverse)/IC50 (forward) [4] | IC50 values, Reverse electron transfer [4] | Suppression of specific binding of [125I]TDA to ND1 (in words) [5] | IC50 [6] |
| --- | --- | --- | --- | --- | --- | --- | --- |
| Cc1nn(C)c(Oc2ccccc2)c1C=NOCc1ccc(C(=O)OC(C)(C)C)cc1 [fenpyroximate] | completely suppress | suppressed the radiolabeling |  |  |  |  |  |
| C/C=C(\C)[C@H](O)[C@H](C)/C=C(C)/C=C/C/C(C)=C/Cc1nc(OC)c(OC)c(O)c1C [piericidin A] | completely suppress |  | 81 ± 7.1 pmol inhibitor/mg of protein | 0.59 | 48 ± 4.3 pmol inhibitor/mg of protein |  |  |
| CC(C)(C)c1ccc(CSc2cnn(C(C)(C)C)c(=O)c2Cl)cc1 [pyridaben] | completely suppress | suppressed the radiolabeling |  |  |  |  |  |
| C=C(C)[C@H]1Cc2c(ccc3c2O[C@@H]2COc4cc(OC)c(OC)cc4[C@@H]2C3=O)O1 [rotenone] |  | suppressed the radiolabeling |  |  |  |  |  |
| CCCCCCCCCCC(O)C1CCC(C2CCC(C(O)CCCCCCCCCCC(O)CC3=CC(C)OC3=O)O2)O1 (stereo not drawn) [Bullatacin, bullatacin] |  | suppressed the radiolabeling | 46 ± 5.2 pmol inhibitor/mg of protein | 0.61 | 28 ± 4.4 pmol inhibitor/mg of protein | suppressed the specific binding more efficiently than the piperazines | 0.85 nM |
